Measurements taken from PubChem BioAssay (NCI).
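Dose response: 5 concentrations. Exposure: 48 h. Format: 96-well plates. Endpoint: linear interpolation; highest concentration if not reached. GI50 = concentration required for 50% inhibition of growth. Definition used: TGI = concentration required for complete inhibition of growth.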

What was measured:
Assay in all cases: NCI tumour cell line growth inhibition, 48 h
[1] = tested on: 786-0 renal
[2] = tested on: A498 renal
[3] = tested on: A549 NSCLC
[4] = tested on: ACHN renal
[5] = tested on: BT-549 breast
[6] = tested on: CAKI-1 renal
[7] = tested on: CCRF-CEM leukemia
[8] = tested on: COLO 205 colon
[9] = tested on: DU-145 prostate
[10] = tested on: EKVX NSCLC
[11] = tested on: HCC-2998 colon
[12] = tested on: HCT-116 colon
[13] = tested on: HCT-15 colon
[14] = tested on: HL-60(TB) leukemia
[15] = tested on: HOP-62 NSCLC
[16] = tested on: HOP-92 NSCLC
[17] = tested on: HS 578T breast
[18] = tested on: HT29 colon
[19] = tested on: IGROV1 ovarian
[20] = tested on: K-562 leukemia
[21] = tested on: KM12 colon
[22] = tested on: LOX IMVI melanoma
[23] = tested on: M14 melanoma
[24] = tested on: MALME-3M melanoma
[25] = tested on: MCF7 breast
[26] = tested on: MDA-MB-231 breast
[27] = tested on: MDA-MB-435
[28] = tested on: MDA-N
[29] = tested on: MOLT-4 leukemia
[30] = tested on: NCI-H226 lung
[31] = tested on: NCI-H23 lung
[32] = tested on: NCI-H460 lung
[33] = tested on: NCI-H522 lung
[34] = tested on: NCI/ADR-RES ovarian
[35] = tested on: OVCAR-3 ovarian
[36] = tested on: OVCAR-4 ovarian
[37] = tested on: OVCAR-5 ovarian
[38] = tested on: OVCAR-8 ovarian
[39] = tested on: PC-3 prostate
[40] = tested on: RPMI-8226 leukemia
[41] = tested on: RXF 393 renal
[42] = tested on: SF-268 CNS
[43] = tested on: SF-295 CNS
[44] = tested on: SF-539 CNS
[45] = tested on: SK-MEL-2 melanoma
[46] = tested on: SK-MEL-28 melanoma
[47] = tested on: SK-MEL-5 melanoma
[48] = tested on: SK-OV-3 ovarian
[49] = tested on: SN12C renal
[50] = tested on: SNB-19 CNS
[51] = tested on: SNB-75 CNS
[52] = tested on: SR leukemia
[53] = tested on: SW-620 colon
[54] = tested on: T-47D breast
[55] = tested on: TK-10 renal
[56] = tested on: U251 CNS
[57] = tested on: UACC-257 melanoma
[58] = tested on: UACC-62 melanoma
[59] = tested on: UO-31 renal
[60] = tested on: DLD-1 colon
[61] = tested on: DMS 114 small cell lung
[62] = tested on: DMS 273 small cell lung
[63] = tested on: HOP-18 NSCLC
[64] = tested on: KM20L2 colon
[65] = tested on: LXFL 529 NSCLC
[66] = tested on: M19-MEL melanoma
[67] = tested on: SNB-78 CNS

Compound: C[C@]12CC[C@@H]3c4cc(I)c(O)cc4CC[C@H]3[C@@H]1CC[C@@H]2O
- TGI [1]: 18.4 µM
- TGI [2]: 24.3 µM
- TGI [3]: 25.1 µM
- TGI [4]: 21 µM
- TGI [5]: 25.1 µM
- TGI [6]: 27 µM
- TGI [7]: 22.4 µM
- TGI [8]: 36.2 µM
- GI50 [9]: 6.9 µM
- TGI [9]: 23.8 µM
- TGI [10]: 15.6 µM
- TGI [11]: 21 µM
- GI50 [12]: 5.01 µM
- TGI [12]: 16.5 µM
- TGI [13]: 8.78 µM
- TGI [14]: > 33.4 µM
- GI50 [15]: 4.22 µM
- TGI [15]: 17.3 µM
- TGI [16]: 26.3 µM
- TGI [17]: 8.6 µM
- TGI [18]: 34.3 µM
- TGI [19]: 20.5 µM
- TGI [20]: 24.2 µM
- TGI [21]: 13.2 µM
- TGI [22]: 25.8 µM
- TGI [23]: 17.4 µM
- TGI [24]: 28.3 µM
- TGI [25]: 21.1 µM
- TGI [26]: 25.3 µM
- GI50 [27]: 2.11 µM
- TGI [27]: 8.02 µM
- TGI [28]: 5.77 µM
- TGI [29]: > 54.8 µM
- TGI [30]: 33.4 µM
- TGI [31]: 25.1 µM
- TGI [32]: 16 µM
- TGI [33]: 17.8 µM
- TGI [34]: > 78.2 µM
- TGI [35]: 11.9 µM
- TGI [36]: 39.3 µM
- TGI [37]: 25.7 µM
- TGI [38]: 40.2 µM
- TGI [39]: > 56.4 µM
- TGI [40]: 37.7 µM
- TGI [41]: 20.1 µM
- TGI [42]: 58.5 µM
- TGI [43]: 16.4 µM
- GI50 [44]: 3.02 µM
- TGI [44]: 7.76 µM
- TGI [45]: 13.7 µM
- TGI [46]: 26.7 µM
- TGI [47]: 12.2 µM
- TGI [48]: 16.4 µM
- GI50 [49]: 6.66 µM
- TGI [49]: 22.2 µM
- TGI [50]: 34.9 µM
- TGI [51]: 12.4 µM
- TGI [52]: 13.7 µM
- TGI [53]: 13.5 µM
- TGI [54]: 37.4 µM
- TGI [55]: 27.6 µM
- TGI [56]: 16.8 µM
- TGI [57]: 23.5 µM
- GI50 [58]: 3.63 µM
- TGI [58]: 14.5 µM
- TGI [59]: 17.6 µM

Compound: O=C(/C=C/c1ccccc1)CC(=O)CCC(=O)Nc1ccc(Cl)cc1
- TGI [1]: > 100 µM
- TGI [2]: > 100 µM
- TGI [3]: > 100 µM
- TGI [4]: > 100 µM
- TGI [6]: > 100 µM
- TGI [7]: > 100 µM
- TGI [8]: > 100 µM
- TGI [60]: > 100 µM
- TGI [61]: > 100 µM
- TGI [62]: > 100 µM
- TGI [10]: > 100 µM
- TGI [11]: > 100 µM
- TGI [12]: > 100 µM
- TGI [13]: > 100 µM
- TGI [14]: > 100 µM
- TGI [63]: > 100 µM
- TGI [15]: > 100 µM
- TGI [18]: > 100 µM
- TGI [19]: > 100 µM
- TGI [20]: > 100 µM
- TGI [21]: > 100 µM
- TGI [64]: > 100 µM
- TGI [22]: > 100 µM
- TGI [65]: > 100 µM
- TGI [23]: > 100 µM
- TGI [66]: > 100 µM
- TGI [24]: > 100 µM
- TGI [29]: > 100 µM
- TGI [30]: > 100 µM
- TGI [31]: > 100 µM
- TGI [32]: > 100 µM
- TGI [33]: > 100 µM
- TGI [35]: > 100 µM
- TGI [36]: > 100 µM
- TGI [37]: > 100 µM
- TGI [38]: > 100 µM
- TGI [40]: > 100 µM
- TGI [42]: > 100 µM
- TGI [43]: > 100 µM
- TGI [44]: > 100 µM
- TGI [45]: > 100 µM
- TGI [47]: > 100 µM
- TGI [48]: > 100 µM
- TGI [49]: > 100 µM
- TGI [50]: > 100 µM
- TGI [67]: > 100 µM
- TGI [53]: > 100 µM
- TGI [55]: > 100 µM
- TGI [56]: > 100 µM
- TGI [57]: > 100 µM
- TGI [58]: > 100 µM
- TGI [59]: > 100 µM
